“And” between values parts separate entries of the source, which are not always exact repeats. Identical values can stand only once. Inconclusive results and toxic doses are left out. How the source made its calls: active means survival T/C of 150% or more; inactive means T/C below 125% in these data.
Test system: P388 leukemia ip, CD2F1 mice, survival T/C
Assay: NCI In Vivo Anticancer Drug Screen. Data for tumor model P388 Leukemia (intraperitoneal) in CD2F1 (CDF1) mice
Conditions: endpoint: median survival time, higher = longer survival
Procedure, shortened: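 Mice carrying the transplanted tumor received test compound or vehicle. Survival was recorded in each group, and the value is the treated-group measurement divided by that of the vehicle-treated control group.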

[1] = dose: 60.0 mg/kg/injection, schedule: Q01DX005 (ip), vehicle: Klucel (hydroxypropylcellulose) (HPC)
[2] = dose: 120.0 mg/kg/injection, schedule: Q01DX005 (ip), vehicle: Klucel (hydroxypropylcellulose) (HPC)
[3] = dose: 240.0 mg/kg/injection, schedule: Q01DX005 (ip), vehicle: Klucel (hydroxypropylcellulose) (HPC)
[4] = dose: 50.0 mg/kg/injection, schedule: Q01DX005 (ip), vehicle: Klucel (hydroxypropylcellulose) (HPC)
[5] = dose: 100.0 mg/kg/injection, schedule: Q01DX005 (ip), vehicle: Klucel (hydroxypropylcellulose) (HPC)
[6] = dose: 200.0 mg/kg/injection, schedule: Q01DX005 (ip), vehicle: Klucel (hydroxypropylcellulose) (HPC)
[7] = dose: 50.0 mg/kg/injection, schedule: Q01DX005 (ip), vehicle: saline with Tween-80
[8] = dose: 100.0 mg/kg/injection, schedule: Q01DX005 (ip), vehicle: saline with Tween-80
[9] = dose: 100.0 mg/kg/injection, schedule: Q01DX001 (ip), vehicle: Klucel (hydroxypropylcellulose) (HPC)
[10] = dose: 200.0 mg/kg/injection, schedule: Q01DX001 (ip), vehicle: Klucel (hydroxypropylcellulose) (HPC)
[11] = dose: 400.0 mg/kg/injection, schedule: Q01DX001 (ip), vehicle: Klucel (hydroxypropylcellulose) (HPC)
[12] = dose: 60.0 mg/kg/injection, schedule: Q01DX005 (ip), vehicle: saline with Tween-80
[13] = dose: 120.0 mg/kg/injection, schedule: Q01DX005 (ip), vehicle: saline with Tween-80
[14] = dose: 240.0 mg/kg/injection, schedule: Q01DX005 (ip), vehicle: saline with Tween-80
[15] = dose: 50.0 mg/kg/injection, schedule: Q01DX009 (ip), vehicle: Klucel (hydroxypropylcellulose) (HPC)
[16] = dose: 100.0 mg/kg/injection, schedule: Q01DX009 (ip), vehicle: Klucel (hydroxypropylcellulose) (HPC)
[17] = dose: 200.0 mg/kg/injection, schedule: Q01DX009 (ip), vehicle: Klucel (hydroxypropylcellulose) (HPC)
[18] = dose: 12.5 mg/kg/injection, schedule: Q01DX009 (ip), vehicle: water
[19] = dose: 50.0 mg/kg/injection, schedule: Q01DX009 (ip), vehicle: saline with Tween-80
[20] = dose: 100.0 mg/kg/injection, schedule: Q01DX009 (ip), vehicle: saline with Tween-80

Measured: T/C

COc1ccc(-c2c(C)oc(C)c2C(C)=O)cc1OC
inactive: [1] 98 % of control | [2] 102 % of control | [3] 101 % of control

CN(/N=C\c1cc(Cl)cc(Cl)c1O)c1ccccc1[N+](=O)[O-]
inactive: [4] 101 % of control | [5] 95 % of control | [6] 101 % of control

CC(C)=CCCC1(C)C=Cc2c(ccc3c(C)coc23)O1 (stereo not given)
inactive: [7] 97 % of control | [8] 100 % of control | dose: 200.0 mg/kg/injection, schedule: Q01DX005 (ip), vehicle: saline with Tween-80 100 % of control

O=C1CC(N2CCCC2)=Nc2ccccc2N1
inactive: [4] 113 % of control | [5] 104 % of control | [6] 103 % of control

Cn1c(N=P(c2ccccc2)(c2ccccc2)c2ccccc2)cc(=O)n(C)c1=O
inactive: [1] 101 % of control | [2] 102 % of control | [3] 101 % of control

[NH-]C(CCC(N)=O)C(=O)O.[NH-]C(CCCN=C(N)N)C(=O)O.[Zn+2] (stereo not given)
inactive: dose: 25.0 mg/kg/injection, schedule: Q01DX005 (ip), vehicle: saline 100 % of control and 106 % of control | dose: 50.0 mg/kg/injection, schedule: Q01DX005 (ip), vehicle: saline 103 % of control and 106 % of control | dose: 100.0 mg/kg/injection, schedule: Q01DX005 (ip), vehicle: saline 110 % of control and 119 % of control

CCn1c(Cl)c(/C=N/NC(N)=S)c2cc(/C=N/NC(N)=S)ccc21
inactive: [9] 98 % of control | [10] 97 % of control | [11] 89 % of control

[N-]=[N+]=Nc1cc(Cl)nnc1-c1ccccc1
inactive: dose: 15.0 mg/kg/injection, schedule: Q01DX005 (ip), vehicle: Klucel (hydroxypropylcellulose) (HPC) 107 % of control | dose: 30.0 mg/kg/injection, schedule: Q01DX005 (ip), vehicle: Klucel (hydroxypropylcellulose) (HPC) 105 % of control | [1] 100 % of control

COC1=C(OC)C(=O)C(C(=O)CCCCC(=O)O)=C(C)C1=O
inactive: [12] 107 % of control | [13] 101 % of control | [14] 107 % of control

[Cl][Sn]([c]1ccccc1)([c]1ccccc1)[c]1ccccc1
inactive: dose: 2.5 mg/kg/injection, schedule: Q01DX009 (ip), vehicle: saline 100 % of control | dose: 5.0 mg/kg/injection, schedule: Q01DX009 (ip), vehicle: saline 115 % of control

CC(NC(=O)C1CC(O)CN1C(=O)CN)C(=O)O (stereo not given)
inactive: [4] 96 % of control | [5] 110 % of control | [6] 94 % of control

CCOC(=O)c1c(C)[nH]c2c(-c3ccccc3)c3cc(Cl)ccc3nc12
inactive: [15] 103 % of control | [16] 109 % of control | [17] 104 % of control | dose: 400.0 mg/kg/injection, schedule: Q01DX009 (ip), vehicle: Klucel (hydroxypropylcellulose) (HPC) 99 % of control

CCN(CC)C1CS(=O)(=O)OC2=C1CSCC2 (stereo not given)
inactive: dose: 100.0 mg/kg/injection, schedule: Q04DX003 (ip), vehicle: saline with Tween-80 102 % of control | dose: 200.0 mg/kg/injection, schedule: Q04DX003 (ip), vehicle: saline with Tween-80 100 % of control | dose: 400.0 mg/kg/injection, schedule: Q04DX003 (ip), vehicle: saline with Tween-80 95 % of control

Cc1c2ccncc2c(CNC(=O)CCCC(=O)NCc2c3cnccc3c(C)c3c2c2ccccc2n3C)c2c3ccccc3n(C)c12
inactive: dose: 6.25 mg/kg/injection, schedule: Q04DX002 (ip), vehicle: saline with Tween-80 104 % of control | dose: 12.5 mg/kg/injection, schedule: Q04DX002 (ip), vehicle: saline with Tween-80 104 % of control | dose: 25.0 mg/kg/injection, schedule: Q04DX002 (ip), vehicle: saline with Tween-80 102 % of control | dose: 50.0 mg/kg/injection, schedule: Q04DX002 (ip), vehicle: saline with Tween-80 104 % of control

CCOC(=O)c1ccc(C(=O)OCC)nc1
inactive: dose: 25.0 mg/kg/injection, schedule: Q01DX001 (ip), vehicle: saline 100 % of control | dose: 50.0 mg/kg/injection, schedule: Q01DX001 (ip), vehicle: saline 100 % of control | dose: 100.0 mg/kg/injection, schedule: Q01DX001 (ip), vehicle: saline 100 % of control

CS(=O)(=O)OCCCCCCCCCCCN1CCOCC1
inactive: [7] 98 % of control | [8] 94 % of control

O=C1c2ccccc2C(=O)c2c(NCCN3CCNCC3)ccc(NCCN3CCNCC3)c21
inactive: dose: 4.0 mg/kg/injection, schedule: Q01DX009 (ip), vehicle: acid diluted with saline 103 % of control | dose: 8.0 mg/kg/injection, schedule: Q01DX009 (ip), vehicle: acid diluted with saline 109 % of control | [18] 107 % of control | dose: 16.0 mg/kg/injection, schedule: Q01DX009 (ip), vehicle: acid diluted with saline 120 % of control | dose: 50.0 mg/kg/injection, schedule: Q01DX009 (ip), vehicle: water 123 % of control

CC(=O)NS(=O)(=O)c1ccc(NCc2c3ccccc3nc3cc(Cl)ccc23)cc1
inactive: [12] 114 % of control | [13] 102 % of control | [14] 105 % of control

COc1ccc([P+](CCN2C(=O)c3ccccc3C2=O)(c2ccc(OC)cc2)c2ccc(OC)cc2)cc1
inactive: dose: 0.78 mg/kg/injection, schedule: Q01DX009 (ip), vehicle: water 121 % of control | dose: 1.56 mg/kg/injection, schedule: Q01DX009 (ip), vehicle: water 114 % of control | dose: 2.7 mg/kg/injection, schedule: Q01DX009 (ip), vehicle: water 116 % of control | dose: 3.13 mg/kg/injection, schedule: Q01DX009 (ip), vehicle: water 121 % of control | [18] 92 % of control

CCn1c(O)c(N=NC(=N)SCC(C)C)c2ccccc21
inactive: dose: 6.25 mg/kg/injection, schedule: Q01DX009 (ip), vehicle: suspension in saline 97 % of control | dose: 12.5 mg/kg/injection, schedule: Q01DX009 (ip), vehicle: suspension in saline 94 % of control

COc1ccc(-c2cc(=O)c3ccc4c(O)cccc4c3o2)cc1
inactive: [19] 94 % of control | [20] 100 % of control | dose: 200.0 mg/kg/injection, schedule: Q01DX009 (ip), vehicle: saline with Tween-80 97 % of control | dose: 400.0 mg/kg/injection, schedule: Q01DX009 (ip), vehicle: saline with Tween-80 90 % of control

Clc1ccc(S/N=C/c2ccccc2)cc1
inactive: [19] 113 % of control | [20] 114 % of control

CC(=O)c1cccc(NC(=O)Nc2nccs2)c1
inactive: dose: 25.0 mg/kg/injection, schedule: Q01DX009 (ip), vehicle: Klucel (hydroxypropylcellulose) (HPC) 102 % of control | [15] 110 % of control | [16] 101 % of control | [17] 105 % of control

Cc1cc(=O)oc2cc(O)c(C(=O)/C=C/N(C)C)cc12
inactive: [12] 92 % of control | [13] 95 % of control | [14] 86 % of control

Cn1nnc(/C(N)=N/N=C/c2ccccc2)n1
inactive: [15] 100 % of control | [16] 102 % of control | [17] 94 % of control

C#CC(=O)OCC#CCOC(=O)C#C
inactive: dose: 0.75 mg/kg/injection, schedule: Q01DX009 (ip), vehicle: saline with Tween-80 104 % of control | dose: 1.5 mg/kg/injection, schedule: Q01DX009 (ip), vehicle: saline with Tween-80 104 % of control | dose: 3.0 mg/kg/injection, schedule: Q01DX009 (ip), vehicle: saline with Tween-80 112 % of control | dose: 6.0 mg/kg/injection, schedule: Q01DX009 (ip), vehicle: saline with Tween-80 96 % of control

CCOc1ccc2nc3cc(I)ccc3c(N)c2c1
inactive: dose: 7.5 mg/kg/injection, schedule: Q01DX005 (ip), vehicle: saline with Tween-80 102 % of control | dose: 15.0 mg/kg/injection, schedule: Q01DX005 (ip), vehicle: saline with Tween-80 100 % of control | dose: 30.0 mg/kg/injection, schedule: Q01DX005 (ip), vehicle: saline with Tween-80 112 % of control

CCOC(=O)Cc1ccc(-c2csc(Nc3ccc(F)cc3)n2)cc1
inactive: [15] 103 % of control | [16] 100 % of control | [17] 105 % of control

Cc1ccc(Nc2c3ccccc3nc3c2cnn3-c2ccccc2)cc1
inactive: [1] 91 % of control | [2] 90 % of control | [3] 87 % of control

O=C1Cc2ccccc2N1C(=O)c1ccccc1Br
inactive: [9] 106 % of control | [10] 98 % of control | [11] 90 % of control
